“And” between values parts separate entries of the source, which are not always exact repeats. Equal entries are not always repeated.
Test system: 354836-022-R-J1-PDC multicell spheroid viability
Assay: Anticancer human tumor 354836-022-R-J1-PDC patient-derived head and neck squamous cell carcinoma cell line growth inhibition [PI3K]
Conditions: for viability, T/C: stronger effect = lower value
Source text: Combinatorial screen of targeted agents with the PI3K inhibitors inavolisib, alpelisib, duvelisib, and copanlisib in multi-cell type tumor spheroids
A high-throughput screen of multi-cell type tumor spheroids was designed to identify active combinations of targeted small molecules and PI3K pathway inhibitors. Complex spheroids include a stromal component modeled by human endothelial cells (HUVEC) and fibroblasts modeled by human mesenchymal stem cells (MSCs). The concentration ranges selected for each drug and investigational agent were based upon clinically achievable concentrations if the clinical Cmax of the agent was known.
Compounds. The drugs and investigational agents: inavolisib (NSC800729), alpelisib (NSC765974), duvelisib (NSC772469), copanlisib (NSC816437), ipatasertib (NSC767898), afuresertib (NSC778305), talazoparib (NSC767125), sapanisertib (NSC764658), selumetinib (NSC741078), tovorafenib (DAY101, NSC766906), vemurafenib (NSC761431), ravoxertinib (NSC781343), sotorasib (NSC818433), MRTX1133 (NSC 836407), abemaciclib (NSC 768073), palbociclib (NSC758247), venetoclax (NSC 766270), SY5609 (NSC837396), enzalutamide (NSC755605), and darolutamide (NSC825331), were obtained from the National Cancer Institute (NCI) Developmental Therapeutics Program Chemical Repository. The FDA-approved anticancer drug set is available from the NCI Developmental Therapeutics Program. […] The stock solutions were prepared in dimethyl sulfoxide (DMSO, Sigma-Aldrich, St. Louis, MO, cat. D2650) at 800-fold the tested concentration and stored at -70 degrees C prior to their use. All drugs and investigational agents were tested over a range starting from a high concentration at or near the clinical Cmax and decreasing in half-log increments. If the clinical Cmax for an agent had not been determined, the highest concentration tested was 10 microM.
Cell Culture. All cells were maintained in an incubator at 37 degrees C and 5% CO2 with 95% humidity. The PDC lines were cultured according to standard operating procedures established by the NCI PDMR (https://pdmr.cancer.gov/sops/default.htm). All PDCs were thawed and cultured in Matrigel-coated flasks prepared with a working solution of 1X Ham's F-12 nutrient mix, without supplementation (Invitrogen, Waltham, MA, cat. 11765054), 100 U/mL penicillin-streptomycin (Invitrogen, cat. 15140122), and 2.5% Matrigel (Corning Inc., Corning, NY, cat. 354248) for the first three passages. The 354836-022-R-J1-PDC, 475296-252-R-J1-PDC, and 997726-040-R-J2-PDC lines were cultured in 6A media, which includes advanced DMEM/F-12 (Thermo Fisher Scientific, cat. 12634028), 10 mM HEPES (Thermo Fisher Scientific, cat. 15630080), 1X GlutaMAX supplement (Thermo Fisher Scientific, cat. 35050061), 0.1 mg/mL primocin (InvivoGen, San Diego, CA, cat. ant-pm-2), 10% defined fetal bovine serum, heat inactivated (HyClone Laboratories Inc., Logan, UT, cat. SH30070.03HI), 50% L-WRN conditioned media (ATCC, cat. CRL-3276), 1.25 mM N-Acetyl-L-cysteine (Sigma-Aldrich, cat. A9165), 10 mM nicotinamide (Sigma-Aldrich, cat. N0636), 1X B-27 supplement (Thermo Fisher Scientific, cat. 17504044), 1X N-2 supplement (Thermo Fisher Scientific, cat. 17502048), and 10 microM Y-27632 dihydrochloride (Tocris Bioscience, Bristol, United Kingdom, cat. 1254). The 624824-186-R-J2-PDC line was cultured in 6C/Colon 1B media, which includes all 6A media components plus 50 ng/mL human EGF recombinant protein (Thermo Fisher Scientific, cat. PHG0311). […]

[1] = compound alone, run of 06/12/2023
[2] = compound alone, run of 06/13/2023
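Note: spheroids exposed to agents for seven days before the viability read.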

Structure (SMILES)	viability, T/C (compound 0.0316 µM)	viability, T/C (compound 0.1 µM)	viability, T/C (compound 0.316 µM)	viability, T/C (compound 10 µM)	IC50 (curve of compound)	viability, T/C (compound 0.00316 µM)	viability, T/C (compound 0.01 µM)	viability, T/C (compound 1 µM)	viability, T/C (compound 3.16 µM)	further results
C=CC(=O)N1CCN(c2nc(=O)n(-c3c(C)ccnc3C(C)C)c3nc(-c4c(O)cccc4F)c(F)cc23)C(C)C1 (centres undefined)	114% [middle of 4 runs]	95.3% [middle of 4 runs]	99.3% [middle of 4 runs]	95.1% [middle of 4 runs]	> 10 µM					
CC(=O)c1c(C)c2cnc(Nc3ccc(N4CCNCC4)cn3)nc2n(C2CCCC2)c1=O	103% [middle of 4 runs]	104% [middle of 4 runs]			> 0.1 µM	105% [middle of 4 runs]	102% [middle of 4 runs]			viability, T/C (compound 0.000316 µM): 105% (2×) and 101% and 106%; viability, T/C (compound 0.001 µM): 104% [middle of 4 runs]
CC(C)NCC(C(=O)N1CCN(c2ncnc3c2C(C)CC3O)CC1)c1ccc(Cl)cc1 (centres undefined)	96.5% [middle of 4 runs]	71% [middle of 4 runs]	54.1% [middle of 4 runs]	14.2% [middle of 4 runs]	319 nM [middle of 4 runs]			24.7% [middle of 4 runs]	18% [middle of 4 runs]	
CC(C)n1nc(-c2ccc3oc(N)nc3c2)c2c(N)ncnc21	28.9% [middle of 4 runs]	11.4% [middle of 4 runs]			0.00959 µM and 0.012 µM and 0.0118 µM	78.9% [middle of 4 runs]	52% [middle of 4 runs]			viability, T/C (compound 0.000316 µM): 92.8% [middle of 4 runs]; viability, T/C (compound 0.001 µM): 84.9% [middle of 4 runs]
CC(Cn1ccc(-c2ccc(C#N)c(Cl)c2)n1)NC(=O)c1cc(C(C)O)[nH]n1 (centres undefined)	108% [middle of 4 runs]	95.5% [middle of 4 runs]	112% [middle of 4 runs]	77.8% [middle of 4 runs]	> 10 µM			93.7% [middle of 4 runs]	99.2% [middle of 4 runs]	
CC(Nc1ccc2c(c1)OCCn1cc(N3C(=O)OCC3C(F)F)nc1-2)C(N)=O (centres undefined)	99.1% [middle of 8 runs]	87.8% [middle of 7 runs]	76.5% [middle of 8 runs]			99.7% [middle of 8 runs]	96.8% [middle of 8 runs]	53.6% [middle of 8 runs]		IC50 [1]: > 1 µM
CC(Nc1ncnc2nc[nH]c12)c1cc2cccc(Cl)c2c(=O)n1-c1ccccc1 (centres undefined)	101% [middle of 8 runs]	104% [middle of 8 runs]	99.3% [middle of 8 runs]	94.6% [middle of 8 runs]				97.6% [middle of 8 runs]	92.8% [middle of 8 runs]	IC50 [2]: > 10 µM
CC1(C)CCC(CN2CCN(c3ccc(C(=O)NS(=O)(=O)c4ccc(NCC5CCOCC5)c([N+](=O)[O-])c4)c(Oc4cnc5[nH]ccc5c4)c3)CC2)=C(c2ccc(Cl)cc2)C1	104% [middle of 4 runs]		102% [middle of 4 runs]					82.2% [middle of 4 runs]	72.4% [middle of 4 runs]	
CC1(C)CCC(Nc2ncc(C(F)(F)F)c(-c3c[nH]c4c(P(C)(C)=O)c(C#N)ccc34)n2)CN1 (centres undefined)	21.9% [middle of 4 runs]	19.9% [middle of 4 runs]	20.8% [middle of 4 runs]	2.79% [middle of 4 runs]	< 0.0316 µM			21.9% [middle of 4 runs]	32% [middle of 4 runs]	
CCN1CCN(Cc2ccc(Nc3ncc(F)c(-c4cc(F)c5nc(C)n(C(C)C)c5c4)n3)nc2)CC1	98.2% [middle of 4 runs]	90% and 99.5% and 87.3% (2×)	94% [middle of 4 runs]		> 1 µM and 0.83 µM	111% [middle of 4 runs]	94.4% [middle of 4 runs]			
CNC(=O)c1ccc(N2C(=S)N(c3ccc(C#N)c(C(F)(F)F)c3)C(=O)C2(C)C)cc1F	106% [middle of 4 runs]	102% [middle of 4 runs]	96.3% and 107% (2×) and 116%	96.7% [middle of 4 runs]	> 10 µM			100% [middle of 4 runs]	99.1% and 122% and 104% (2×)	
COc1c(OCCCN2CCOCC2)ccc2c3n(c(=NC(=O)c4cnc(N)nc4)nc12)CCN3	82.5% [middle of 8 runs]	50.2% [middle of 8 runs]	11.2% [middle of 8 runs]			106% [middle of 8 runs]	97.6% [middle of 8 runs]	1.63% [middle of 8 runs]		IC50 [2]: 91.2 nM [middle of 8 runs]
C[C@@H](NC(=O)c1ncnc(N)c1Cl)c1ncc(C(=O)Nc2cc(C(F)(F)F)c(Cl)cn2)s1	105% [middle of 4 runs]	99.9% [middle of 4 runs]	99.3% [middle of 4 runs]	70.9% [middle of 4 runs]	> 10 µM			98.5% [middle of 4 runs]	105% [middle of 4 runs]	
Cc1nc(NC(=O)N2CCCC2C(N)=O)sc1-c1ccnc(C(C)(C)C(F)(F)F)c1 (centres undefined)	103% [middle of 8 runs]	100% [middle of 8 runs]		30.9% [middle of 8 runs]				78.3% [middle of 8 runs]	59.7% [middle of 8 runs]	IC50 [1]: 4.49 µM [middle of 8 runs]
Cn1cnc2c(F)c(Nc3ccc(Br)cc3Cl)c(C(=O)NOCCO)cc21					> 3 µM					viability, T/C (compound 0.00949 µM): 90% [middle of 4 runs]; viability, T/C (compound 0.03 µM): 85.5% [middle of 4 runs]; viability, T/C (compound 0.0949 µM): 91.4% [middle of 4 runs]; viability, T/C (compound 0.3 µM): 74.8% [middle of 4 runs]; viability, T/C (compound 0.949 µM): 80.2% [middle of 4 runs]; viability, T/C (compound 3 µM): 58.4% [middle of 4 runs]
Cn1ncc(Cl)c1-c1cc(C(=O)NC(CN)Cc2cccc(F)c2)sc1Cl (centres undefined)	83.5% [middle of 4 runs]	51.3% [middle of 4 runs]	35.9% [middle of 4 runs]	5.55% [middle of 4 runs]	114 nM [middle of 4 runs]			22.7% [middle of 4 runs]	15.5% [middle of 4 runs]	
Cn1nccc1Nc1nccc(-c2ccn(C(CO)c3ccc(Cl)c(F)c3)c(=O)c2)n1 (centres undefined)	107% [middle of 4 runs]	91.8% [middle of 4 runs]	110% [middle of 4 runs]	96.2% [middle of 4 runs]	> 10 µM			94.6% [middle of 4 runs]	106% [middle of 4 runs]	
Cn1ncnc1[C@H]1c2n[nH]c(=O)c3cc(F)cc(c23)N[C@@H]1c1ccc(F)cc1	96.4% [middle of 4 runs]	92.1% [middle of 4 runs]			> 0.1 µM	98.7% [middle of 4 runs]	92.5% [middle of 4 runs]			viability, T/C (compound 0.000316 µM): 101% [middle of 4 runs]; viability, T/C (compound 0.001 µM): 100% [middle of 4 runs]

Reference: PubChem BioAssay AID1963981 (Molecular Pharmacology Branch, DTP, NCI, 2024)
